Laboratory results as given in patent publication US5234936A, “Pyrimidocycloalkanes as a II antagonists” (American Home Products Corporation, priority 1991, dated 1993).

System: A II-infused rat
Assay: antihypertensive action in A II-infused rat model
Type: in vivo
Experimental: In accordance with their ability to antagonize angiotensin II, the compounds of this invention show antihypertensive action in the following A II-infused rat model. Rats are anesthetized with Dial-Urethane (0.60 mL/kg, ip) and the trachea cannulated with PE 240. Either one femoral artery and both femoral veins or the carotid artery and the corresponding jugular vein are cannulated with PE 50. If the jugular vein is cannulated, two cannulas are placed in the one vein. The initial portion of the duodenum (just distal to the stomach) is cannulated with PE 50 via a small midline incision. Arterial pressure and heart rate are measured from the arterial cannula. Ten to 15 min are allowed following surgery for stabilization of arterial pressure. Ganglion blockade is then produced by intravenous administration of mecamylamine at 3 mg/kg (1 mL/kg of a 3 mg/mL solution). Ganglion blockade causes a fall in arterial pressure of about 50 mmHg. Mecamylamine is given every 90 min throughout the remainder of the experiment. An A II infusion is then begun into the other venous cannula at 0.25 μg/kg/min (at 9.6 μL/min). The A II infusion returns arterial pressure to or slightly above the control level. Once arterial pressure has stabilized with the A II infusion, baseline values for means arterial pressure (MAP) and heart rate are taken. […]

Structure (SMILES)	average lowering of the A II dependent blood pressure (3 mg/kg id (intraduodenal), one half hour postadministration, ganglion-blocked A II-infused rats)	fall in arterial pressure on ganglion blockade (mecamylamine 3 mg/kg intravenous, before A II infusion, anesthetized rats)
FC(F)(F)c1nc2c(c(NCc3ccc(-c4ccccc4-c4nnn[nH]4)cc3)n1)CCCCC2.O.[K] [Example 5, 6,7,8,9-tetrahydro-N-[[2'-(1H-tetrazol-5-yl)[1,1'-biphenyl]-4-yl]methyl]-2-(trifluoromethyl)-5H-cycloheptapyrimidin-4-amine potassium salt hydrate]	45%	
CNC1(C)C2CCC(C2)C1(C)C (centres unmarked) [mecamylamine]		about 50 mmHg
